Assay results taken from patent publication US20250101028A1, “HETEROCYCLIC COMPOUNDS, COMPOSITIONS THEREOF, AND METHODS OF TREATMENT THEREWITH” (BeiGene, Ltd., priority 2022, published 2025).

Experiments:
[1] = target: T1, GST-tagged GDP-loaded KRAS G12D (amin acids 1-188) (Homo sapiens, UniProt P01116, G12D); experiment: KRAS G12D probe displacement assay (TR-FRET); format: binding; conditions: displacement of biotinylated probe 2 from GDP-loaded KRAS G12D
T1 construct: GST-tagged GDP-loaded KRAS G12D (amin acids 1-188); made in house; host or cells: E. coli
Experimental: KRAS WT and KRAS G12D Probe Displacement Assay
This assay was used to identify compounds which bind to GDP-loaded KRAS protein and are able to displace a biotinylated probe occupying the KRAS binding site. GST-tagged GDP-loaded WT KRAS (amino acids 1-188) and GST-tagged GDP-loaded KRAS G12D (amin acids 1-188) were expressed in E. coli and purified in house. All protein and reaction solutions were prepared in assay buffer containing 50 mM HEPES pH7.5, 50 mM NaCl, 1 mM MgCl2, 1 mM TCEP, 0.01% BSA, and 0.008% Brij-35. Purified WT KRAS (3 nM final concentration) or KRAS G12D protein (0.5 nM final concentration) was incubated with a 3-fold serially diluted compound in the assay plate (384 well microplate, black, Corning). Plates are incubated at 24° C. for 1 hr. Following the incubation, biotinylated probe 1 (60 nM final assay concentration) for WT KRAS and biotinylated probe 2 (4 nM final assay concentration) for KRAS G12D was added to the assay plate, respectively. After 1 hr incubation at 24° C., Mab Anti-GST-Tb cryptate (Cisbio) and Streptavidin-XL665 (Cisbio) were added and further incubated at 24° C. for another 1 hr. The TR-FRET signals (ex337 nm, em665 nm/620 nm) were read on BMG PHERAstar FSX instrument. The inhibition percentage of KRAS protein binding with biotinylated probe in presence of increasing concentrations of compounds was calculated based on the ratio of fluorescence at 665 nm to that at 620 nm. The IC50 value of each compound was calculated from fitting the data to the four-parameter logistic model by Dotmatics.

[2] = system: pERK1/2(THR202/TYR204) level, AsPC-1 cell line; experiment: KRAS G12D pERK assay (HTRF); format: cell-based; conditions: Homo sapiens, ASPC1; AsPC-1 cells, 2 h compound treatment
Experimental: (§1) AsPC-1 cell line was used in this study. Cells were maintained in RPMI-1640 supplemented with 10% fetal bovine serum (Thermo Fisher), 50 units/mL penicillin and streptomycin (Thermo Fisher) and kept at 37° C. in a humidified atmosphere of 5% CO2 in air. Cells were reinstated from frozen stocks that were laid down within 30 passages from the original cells purchased. 30000 cells per well were seeded into a 96-well plate and incubated overnight. Cells were treated with a 10-point dilution series. The final compound concentration is from 0 to 10 μM. After 2 h compound treatment, cells were lysed, and the pERK1/2(THR202/TYR204) level in the cell lysates was detected by HTRF kit (Cisbio). In brief, a total of 16 μL of cell lysate from each well of a 96-well plate was transferred to a 384-well white assay plate. Lysate from each well was incubated with 2 μL of Eu3+− cryptate (donor) labeled anti-phospho-ERK1/2 and 2 μL of D2 (acceptor) labeled anti-phospho-ERK1/2 antibodies (Cisbio) overnight in dark at room temperature. When donor and acceptor are in close proximity, excitation of the donor with laser triggers a Fluorescence Resonance Energy Transfer (FRET) towards the acceptor, which in turn fluoresces at 655 nm wavelength. FRET signals were measured using a PHERAstar FSX reader (BMG Labtech). IC50 determination was performed by fitting the curve of percent inhibition versus the log of the inhibitor concentration using Dotmatics.

[3] = target: T2, GST-tagged GDP-loaded KRAS G12V (amino acids 1-169) (Homo sapiens, UniProt P01116, G12V); experiment: KRAS G12V probe displacement assay (TR-FRET); format: binding; conditions: displacement of biotinylated probe 2 from GDP-loaded KRAS G12V
T2 construct: GST-tagged GDP-loaded KRAS G12V (amino acids 1-169); made in house; host or cells: E. coli
How it was run: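 Probe displacement read as TR-FRET (665/620 nm) with anti-GST-Tb and streptavidin-XL665, IC50 from four-parameter logistic fit. Compound preincubated 1 h, 24 °C, with E. coli-expressed KRAS 1-169: WT at 3 nM with 60 nM probe 1, G12V at 2 nM with 2.5 nM probe 2, pH 7.5.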

[4] = system: pERK1/2(THR202/TYR204) level, SW620 cell line; experiment: KRAS G12V pERK assay (HTRF); format: cell-based; conditions: Homo sapiens, SW-620; SW620 cells, 2 hrs compound treatment
Experimental: as §1, with “SW620 cell” for “AsPC-1 cell”, “in RPMI 1640” for “in RPMI-1640”, “purchased. 40000” for “purchased. 30000”, “[…].” for “10 μM.”, “2 hrs” for “2 h”

T1 sequence (P01116 1-188 isoform P01116-2 G12D): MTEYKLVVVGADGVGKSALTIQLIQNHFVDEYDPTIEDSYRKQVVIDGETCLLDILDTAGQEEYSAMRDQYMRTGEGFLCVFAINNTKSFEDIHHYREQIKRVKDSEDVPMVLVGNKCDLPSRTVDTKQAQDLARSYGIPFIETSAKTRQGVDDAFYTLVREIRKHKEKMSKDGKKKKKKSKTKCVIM
T2 sequence (P01116 1-169 isoform P01116-2 G12V): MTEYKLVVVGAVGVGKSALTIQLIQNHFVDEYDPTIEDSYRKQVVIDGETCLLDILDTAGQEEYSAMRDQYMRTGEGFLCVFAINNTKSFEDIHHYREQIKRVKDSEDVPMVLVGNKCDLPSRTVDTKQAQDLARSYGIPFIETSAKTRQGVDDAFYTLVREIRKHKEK

| Structure (SMILES) | IC50 [1] [nM] | IC50 [2] [nM] | IC50 [3] [nM] | IC50 [4] [nM] |
| --- | --- | --- | --- | --- |
| Nc1nc2c(-c3c(C(F)(F)F)cc4c(NC5CC5)nc(OC[C@@]56CCCN5C[C@H](F)C6)nc4c3F)ccc(F)c2s1 [Example 1, 4-(4-(cyclopropylamino)-8-fluoro-2-(((2R,7aS)-2-fluorotetrahydro-1H-pyrrolizin-7a(5H)-yl)methoxy)-6-(trifluoromethyl)quinazolin-7-yl)-7-fluorobenzo[d]thiazol-2-amine] | 22 | 2460 | 4.2 | 129 |
| N#CC1CCN(c2nc(OC[C@@]34CCCN3C[C@H](F)C4)nc3c(F)c(-c4ccc(F)c5sc(N)nc45)c(C(F)(F)F)cc23)CC1 [Example 68, 1-(7-(2-amino-7-fluorobenzo[d]thiazol-4-yl)-8-fluoro-2-(((2R,7aS)-2-fluorotetrahydro-1H-pyrrolizin-7a(5H)-yl)methoxy)-6-(trifluoromethyl)quinazolin-4-yl)piperidine-4-carbonitrile] | 6.6 | 686 | 0.77 | 76 |
| Nc1nc2c(-c3c(C(F)(F)F)cc4c(N5CCC6(CC5)CNC(=O)O6)nc(OC[C@@]56CCCN5C[C@H](F)C6)nc4c3F)ccc(F)c2s1 [Example 86, 8-(7-(2-amino-7-fluorobenzo[d]thiazol-4-yl)-8-fluoro-2-(((2R,7aS)-2-fluorotetrahydro-1H-pyrrolizin-7a(5H)-yl)methoxy)-6-(trifluoromethyl)quinazolin-4-yl)-1-oxa-3,8-diazaspiro[4.5]decan-2-one] | 23 | 5440 | 0.8 | 715 |
| C[C@@H]1C[C@@H](C#N)CCN1c1nc(OC[C@@]23CCCN2C[C@H](F)C3)nc2c(F)c(-c3ccc(F)c4sc(N)c(C#N)c34)c(C(F)(F)F)cc12 [Example 100, (2R,4S)-1-(7-(2-amino-3-cyano-7-fluorobenzo[b]thiophen-4-yl)-8-fluoro-2-(((2R,7aS)-2-fluorotetrahydro-1H-pyrrolizin-7a(5H)-yl)methoxy)-6-(trifluoromethyl)quinazolin-4-yl)-2-methylpiperidine-4-carbonitrile] | 0.34 | 56 | 0.74 | 18 |
| C[C@@]1(O)CCCN(c2nc(OC[C@@]34CCCN3C[C@H](F)C4)nc3c(F)c(-c4cc(N)cc(Cl)c4C(F)(F)F)ncc23)C1 [Example 128, (R)-1-(7-(5-amino-3-chloro-2-(trifluoromethyl)phenyl)-8-fluoro-2-(((2R,7aS)-2-fluorotetrahydro-1H-pyrrolizin-7a(5H)-yl)methoxy)pyrido[4,3-d]pyrimidin-4-yl)-3-methylpiperidin-3-ol] | 1.2 | 76 | 2.6 | 84 |
